Measured values from ChEMBL document CHEMBL1614632, “Trend analysis of a database of intravenous pharmacokinetic parameters in humans for 670 drug compounds” (Drug Metab Dispos, 2008).

Key:
clinical [1] = details: human, in vivo, iv, Vdss
clinical [2] = details: human, in vivo, iv
clinical [3] = details: human, in vivo, iv, t1/2
clinical [4] = details: human, in vivo, iv, CL

Row | SMILES | Vd (clinical [1]) [L/kg] | MRT (clinical [2]) [h] | half-life (clinical [3]) [min] | clearance (clinical [4]) [mL/min/kg]
1 | CCCCCN(CCCOC)C(=O)C(CCC(=O)O)NC(=O)c1ccc(Cl)c(Cl)c1 (stereo unspecified) [LOXIGLUMIDE] | 0.24 | 4 | 312 | 1
2 | COC(=O)Nc1nc2ccc(C(=O)c3ccccc3)cc2[nH]1 [MEBENDAZOLE] | 1.2 | 1.3 | 66 | 15
3 | CC(CCc1ccc2c(c1)OCO2)NCC(O)c1ccc(O)c(C(N)=O)c1 (stereo unspecified) [MEDROXALOL] | 7.9 | 8.2 | 660 | 16
4 | CN(C)C(=N)N=C(N)N [METFORMIN] | 0.64 | 1.4 | 102 | 7.4
5 | Cn1cc[nH]c1=S [METHIMAZOLE] | 0.86 | 3.8 | 144 | 3.7
6 | C[C@](N)(Cc1ccc(O)c(O)c1)C(=O)O [METHYLDOPA] | 0.69 | 3.3 | 354 | 3.5
7 | CCN(CC)CCNC(=O)c1cc(Cl)c(N)cc1OC [METOCLOPRAMIDE] | 3.2 | 9.4 | 432 | 5.7
8 | Cc1ccccc1N1C(=O)c2cc(S(N)(=O)=O)c(Cl)cc2NC1C (stereo unspecified) [METOLAZONE] | 1.6 | 19 | 1200 | 1.4
9 | Cc1ncc([N+](=O)[O-])n1CCO [METRONIDAZOLE] | 0.4 | 7.8 | 426 | 0.85
10 | OCCN1C[C@H](O)[C@@H](O)[C@H](O)[C@H]1CO [MIGLITOL] | 0.28 | 2.7 | 138 | 1.7
11 | Cc1[nH]c(=O)c(C#N)cc1-c1ccncc1 [MILRINONE] | 0.25 | 0.67 | 48 | 6.2
12 | O=C(NCCN1CCOCC1)c1ccc(Cl)cc1 [MOCLOBEMIDE] | 1.1 | 1.8 | 90 | 10
13 | CC(C)(O)c1ccccc1CC[C@@H](SCC1(CC(=O)O)CC1)c1cccc(/C=C/c2ccc3ccc(Cl)cc3n2)c1 [MONTELUKAST] | 0.15 | 3.8 | 300 | 0.68
14 | CN1CC[C@]23c4c5ccc(O)c4O[C@H]2[C@@H](O[C@@H]2O[C@H](C(=O)O)[C@@H](O)[C@H](O)[C@H]2O)C=C[C@H]3[C@H]1C5 [MORPHINE GLUCURONIDE] | 0.12 | 0.91 | 84 | 2.2
15 | COc1nc(C)nc(Cl)c1N=C1NCCN1 [MOXONIDINE] | 1.8 | 2.7 | 132 | 11
16 | Oc1ccc2c3c1O[C@H]1[C@@H](O)CC[C@@]4(O)[C@@H](C2)N(CC2CCC2)CC[C@]314 [NALBUPHINE] | 4.6 | 3.5 | 222 | 22
17 | CC(C)[C@H]1CC[C@H](C(=O)N[C@H](Cc2ccccc2)C(=O)O)CC1 [NATEGLINIDE] | 0.15 | 1.4 | 90 | 1.8
18 | OC(CNCC(O)C1CCc2cc(F)ccc2O1)C1CCc2cc(F)ccc2O1 (stereo unspecified) [NEBIVOLOL] | 11 | 13 | 600 | 14
19 | CN1CCOC(c2ccccc2)c2ccccc2C1 (stereo unspecified) [NEFOPAM] | 5.6 | 8.1 | 300 | 12
20 | COc1nc(N)nc2c1ncn2[C@@H]1O[C@H](CO)[C@@H](O)[C@@H]1O [NELARABINE] | 4.9 | 1 | 30 | 81
21 | CN(C)C(=O)Oc1cccc([N+](C)(C)C)c1.[Br-] [NEOSTIGMINE BROMIDE] | 0.74 | 1.3 | 78 | 9.2
22 | Cc1ccnc2c1NC(=O)c1cccnc1N2C1CC1 [NEVIRAPINE] | 1.3 | 81 | 3180 | 0.3
23 | COC(=O)C1=C(C)NC(C)=C(C(=O)OCC(C)C)C1c1ccccc1[N+](=O)[O-] (stereo unspecified) [NISOLDIPINE] | 5.5 | 6.5 | 660 | 15
24 | O=C1CN=C(c2ccccc2)c2cc([N+](=O)[O-])ccc2N1 [NITRAZEPAM] | 1.7 | 33 | 1560 | 0.86
25 | CNC(=C[N+](=O)[O-])NCCSCc1csc(CN(C)C)n1 [NIZATIDINE] | 1 | 1.7 | 90 | 9.8
26 | CN1Cc2c(N)cccc2C(c2ccccc2)C1 (stereo unspecified) [NOMIFENSINE] | 6 | 4.5 | 390 | 22
27 | CCOC(=O)[C@]1(c2ccccc2)CCC=C[C@H]1NC [NORTILIDINE] | 2.5 | 4.2 | 264 | 9.9

Row | SMILES | Vd (clinical [1]) [L/kg] | MRT (clinical [2]) [h] | half-life (clinical [3]) [min] | clearance (clinical [4]) [mL/min/kg]
28 | CNCCC=C1c2ccccc2CCc2ccccc21 [NORTRIPTYLINE] | 22 | 37 | 1800 | 10
29 | CC1COc2c(N3CCN(C)CC3)c(F)cc3c(=O)c(C(=O)O)cn1c23 (stereo unspecified) [OFLOXACIN] | 1.6 | 11 | 534 | 2.5
30 | O=C(O)c1cc(/N=N/c2ccc(O)c(C(=O)O)c2)ccc1O [OLSALAZINE] | 0.07 | 0.97 | 54 | 1.2
31 | COc1ccc2[nH]c([S+]([O-])Cc3ncc(C)c(OC)c3C)nc2c1 (stereo unspecified) [OMEPRAZOLE] | 0.24 | 0.48 | 34.8 | 8.4
32 | Cc1nccn1CC1CCc2c(c3ccccc3n2C)C1=O (stereo unspecified) [ONDANSETRON] | 1.8 | 5.2 | 204 | 5.8
33 | CCC(CC)O[C@@H]1C=C(C(=O)O)C[C@H](N)[C@H]1NC(C)=O [OSELTAMIVIR CARBOXYLATE] | 0.37 | 1.3 | 108 | 4.8
34 | NC(=O)CN1CC(O)CC1=O (stereo unspecified) [OXIRACETAM] | 0.55 | 4.9 | 450 | 1.8
35 | COc1ccc(Cc2nccc3cc(OC)c(OC)cc23)cc1OC [PAPAVERINE] | 0.95 | 1.4 | 108 | 11
36 | C[C@H](/C=C/[C@H](C)C(C)(C)O)[C@H]1CC[C@H]2/C(=C/C=C3C[C@@H](O)C[C@H](O)C3)CCC[C@]12C [PARICALCITOL] | 0.41 | 7.7 | 318 | 0.89
37 | Nc1nc2c(ncn2CCC(CO)CO)c(=O)[nH]1 [PENCICLOVIR] | 1.1 | 2.4 | 126 | 8.4
38 | CC1(C)S[C@@H]2[C@H](NC(=O)COc3ccccc3)C(=O)N2[C@H]1C(=O)O [PENICILLIN V] | 0.41 | 1 | 50.4 | 6.8
39 | CC(=O)CCCCn1c(=O)c2c(ncn2C)n(C)c1=O [PENTOXIFYLLINE] | 1.8 | 0.77 | 72 | 39
40 | c1ccc(C2(N3CCCCC3)CCCCC2)cc1 [PHENCYCLIDINE] | 6.9 | 23 | 960 | 5.1
41 | CCC1(c2ccccc2)C(=O)NC(=O)NC1=O [PHENOBARBITAL] | 0.54 | 140 | 5940 | 0.063
42 | CC1CCCC(C)N1CCCC(O)(c1ccccc1)c1ccccn1 (stereo unspecified) [PIRMENOL] | 1.4 | 13 | 504 | 1.8
43 | CCCN(CCC)S(=O)(=O)c1ccc(C(=O)O)cc1 [PROBENECID] | 0.13 | 8.7 | 354 | 0.25
44 | CN1CCN(CCCN2c3ccccc3Sc3ccc(Cl)cc32)CC1 [PROCHLORPERAZINE] | 22 | 23 | 540 | 16
45 | OC(CCN1CCCC1)(c1ccccc1)C1CCCCC1 (stereo unspecified) [PROCYCLIDINE] | 0.74 | 14 | 720 | 0.86
46 | CC(C)NCC(O)COc1cccc2ccccc12 (stereo unspecified) [PROPRANOLOL] | 3.1 | 4.3 | 204 | 12
47 | Cc1cc(O)c2c(=O)c3c(O)cc(O)c4c5c(O)cc(O)c6c(=O)c7c(O)cc(CO)c8c1c2c(c34)c(c65)c78 [PSEUDOHYPERICIN] | 0.56 | 15 | 1200 | 0.62
48 | CN(C)C(=O)Oc1ccc[n+](C)c1 [PYRIDOSTIGMINE] | 1.1 | 1.8 | 90 | 9.6
49 | CCN(CC)CCCC(C)Nc1c2ccc(Cl)cc2nc2ccc(OC)cc12 (stereo unspecified) [QUINACRINE] | 45 | 150 | 7200 | 5.1
50 | COCCCOc1ccnc(C[S+]([O-])c2nc3ccccc3[nH]2)c1C (stereo unspecified) [RABEPRAZOLE] | 0.22 | 0.92 | 60 | 4
51 | CCOc1ccccc1OC(c1ccccc1)C1CNCCO1 (stereo unspecified) [REBOXETINE] | 0.65 | 13 | 600 | 0.82
52 | CCOc1cc(CC(=O)N[C@@H](CC(C)C)c2ccccc2N2CCCCC2)ccc1C(=O)O [REPAGLINIDE] | 0.35 | 0.75 | 52.2 | 7.8
53 | O=C1c2ccccc2S(=O)(=O)N1CCCCNC[C@H]1CCc2ccccc2O1 [REPINOTAN] | 0.21 | 1.6 | 72 | 2.2
54 | NC[C@H]1O[C@H](O[C@H]2[C@H](O[C@@H]3O[C@H](CO)[C@@H](O)[C@H]3O)[C@@H](O)[C@H](N)C[C@@H]2N)[C@H](N)[C@@H](O)[C@@H]1O [RIBOSTAMYCIN] | 0.25 | 2.8 | 150 | 1.5
